This is an account of results in patent US20120269815A1, “NEUROTROPHINS AND USES THEREOF” (Regents of the University of Minnesota, priority 2008, published 2012).

Assay [1] has as its target T1, p75^NTR (Homo sapiens, UniProt P08138).
T1 construct: host or cells: COS7
T1 sequence (P08138 29-427): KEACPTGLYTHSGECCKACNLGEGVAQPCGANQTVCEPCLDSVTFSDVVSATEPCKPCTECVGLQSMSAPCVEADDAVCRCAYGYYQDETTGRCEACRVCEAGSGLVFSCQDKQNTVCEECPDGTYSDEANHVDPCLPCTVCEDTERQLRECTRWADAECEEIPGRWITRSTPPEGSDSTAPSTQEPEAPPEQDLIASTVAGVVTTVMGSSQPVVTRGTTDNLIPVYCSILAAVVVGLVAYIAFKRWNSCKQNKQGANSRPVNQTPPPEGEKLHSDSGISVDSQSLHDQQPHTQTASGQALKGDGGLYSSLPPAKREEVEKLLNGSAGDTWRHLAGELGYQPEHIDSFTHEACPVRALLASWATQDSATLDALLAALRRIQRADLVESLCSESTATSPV
In words: Fluorescence-labeled TUF1 peptide binding to COS7 cells expressing p75NTR. The settings on record: labeled peptide 5 nM, 90 min, COS7 cells transfected with pCMV-SPORT6-p75. As for the experimental part:
COS7 cells were seeded at 10,000 cells/well onto a 18 mm coverslip in a 12-well plate. Cells were allowed to settle overnight in a cell culture incubator (NuAire NU-8600, NuAire, Inc., Plymouth, Minn.) set at 37° C. and 5% CO2. Cells were transfected with pCMV-eGFP (Clontech Laboratories, Inc., Mountain View, Calif.) or pCMV-SPORT6-p75 (ATCC) using Fugene HD (Roche Diagnostics Corp., Indianapolis, Ind.) and were incubated overnight. The binding assays were carried out according to Horton et al. with modifications. Synthetic TUF1 peptides (TUF1[43-54] (SEQ ID NO:1) and TUF1[24-40] (SEQ ID NO:3) were generated (via Sigma Genosys, Sigma-Aldrich Co. St. Louis, Mo.) and were conjugated per manufacturer's recommendation with DyLight 549 NHS Ester (Thermo Fisher Scientific, Waltham, Mass.), which have similar spectra to Cy3 dye. Unconjugated dye was removed with a dye removal column (Thermo Fisher Scientific, Waltham, Mass.). Labeled peptides were diluted to 5 nM in 0.15 M Sucrose/PBS and added (1.0 ml/well) to transfected COS7 cells. The binding reaction was incubated in the dark at room temperature for 90 minutes. Cells were rinsed thoroughly with PBS+0.05% Tween-20 to remove unbound peptide. Cells were then fixed with 4% Paraformaldehyde (5 minutes).
Following fixation, cells were permeabilized in PBS+0.1% Tween-20 for 10 minutes, rinsed thoroughly with PBS, and blocked in BSA (10 mg/ml) for 10 minutes. Cells were incubated with rabbit anti-p75^NTR antibody (1:10,000 dilution) for 30 minutes. Excess antibody was removed with PBS washes. Cells were then incubated with Alexa-488 goat anti-rabbit antibody (1:500 dilution, Invitrogen). Cells were again rinsed thoroughly with PBS and mounted in Vectashield mounting media plus DAPI (Vector Laboratories, Inc., Burlingame, Calif.).
COS7 cells were seeded at 10,000 cells/well onto an 18 mm coverslip in a 12-well plate. Cells were allowed to settle overnight in a cell culture incubator (NuAire NU-8600, NuAire, Inc., Plymouth, Minn.) set at 37° C. and 5% CO2. Cells were transfected with pCMV-eGFP (Clontech Laboratories, Inc., Burlingame, Calif.) or pCMV-SPORT6-p75 (ATCC) using Fugene HD (Roche Diagnostics Corp., Indianapolis, Ind.) and were incubated overnight. The binding assays were carried out according to Horton et al. with modifications. Synthetic TUF1 peptides (TUF1[43-54] (SEQ ID NO:1) and TUF1[24-40] (SEQ ID NO:3)) were generated (via Sigma Genosys, Sigma-Aldrich, St. Louis, Mo.) and were conjugated per manufacturer's recommendation with DyLight 549 NHS Ester (Thermo Fisher Scientific Inc., Waltham, Mass.), which have similar spectra to Cy3 dye. Unconjugated dye was removed with a dye removal column (Thermo Fisher Scientific Inc., Waltham, Mass.). Labeled peptides were diluted to 5 nM in 0.15M Sucrose/PBS and added (1.0 ml/well) to transfected COS7 cells. The binding reaction was incubated in the dark at room temperature for 90 min. Cells were rinsed thoroughly with PBS+0.05% Tween-20 to remove unbound peptide. Cells were then fixed with 4% Paraformaldehyde (5 minutes).
Following fixation, cells were permeabilized in PBS+0.1% Tween-20 for 10 minutes, rinsed thoroughly with PBS, and blocked in BSA (10 mg/ml) for 10 minutes. Cells were incubated with rabbit anti-p75^NTR antibody (1:10,000 dilution) for 30 minutes. Excess antibody was removed with PBS washes. Cells were then incubated with Alexa-488-goat anti-rabbit antibody (1:500 dilution, Invitrogen Corp., Carlsbad, Calif.). […]

For assay [2], the system named is Cortical neurons and glia. In words: Glutamate-induced excitotoxicity in cultured cortical neurons. The format is cell-based, mice. The settings on record: 500 μM glutamate, then 0.2-1.8 μM peptide for 24 hours. Here is the method: To assess the trophic effect of TUF1 peptide on primary culture neurons, we assayed the effect of TUF1 supplementation on glutamate-induced excitotoxicity in neuronal cultures. Cortical neurons and glia were cultured from newborn mice for seven days. Cultures were then treated with 500 μM glutamate (diluted in N2tox solution, Invitrogen Corp., Carlsbad, Calif.) and incubated at 37° C. for ten minutes. Glutamate was removed from cultures by two washes with EBSS media (Invitrogen Corp., Carlsbad, Calif.). Cultures were then incubated in EBSS media supplemented with 0.0 μM, 0.2 μM, 0.4 μM, 0.9 μM, or 1.8 μM TUF1 peptide for 24 hours. Surviving neurons from cultures were manually counted by Trypan Blue exclusion using an inverted microscope. Values are means±SD, n=6-8/group.

Assay [3] relates to GT1-1 cells. The following applies: 24 hr serum deprivation, 3.6 μM peptide.
Experimental: GT1-1 cell survival assays: GT1-1 cells are immortalized cell line derived from mouse embryonic hypothalamus (a gift from Dr. Richard Weiner, UCSF).
a) Suppression of TUF1 expression by RNAi GT1-1 cells were seeded at 100,000 cells/well in a 12-well plate (as described in Example 1) and incubated for 72 hours at 37° C. supplemented with 5% CO2. Fresh growth media were added for at least 1 hour before cells were transfected with negative control RNAi or TUF1-specific RNAi (150 picomoles diluted in OptiMEM, Stealth RNAi, Invitrogen Corp., Carlsbad, Calif.) using Fugene6 (1.5 μl/200 μl medium, Roche Diagnostics Corp., Indianapolis, Ind.) and incubated overnight. […] Cells were then lifted from the well by adding Trypsin-EDTA (Invitrogen Corp., Carlsbad, Calif.) and surviving cells were counted by Trypan Blue exclusion using a hemocytometer and an inverted microscope. […]
b) Repression of TUF1 activity by anti-TUF1 peptide antibody (IgG) GT1-1 cells were seeded at 100,000 cells/well and incubated for 72 hours as described above. […] Surviving cells were lifted from wells and counted as described in part (a). […]
Cells were treated with serum-free media supplemented with 0.0 μg/ml, 2.5 μg/ml (1.8 μM), or 5.0 μg/m (3.6 μM) TUF1 peptide. Surviving cells were counted at 24 hours, 48 hours, and 72 hours of incubation as described in part (a). […]

No end group written: not given here.

As for AYKSYVRALPLL [TUF1[43-54]], the results for the “binding to p75^NTR” value in assay [1], in assay [1] (listed as TUF1^43-54) and in assay [1] (listed as TUF1 peptide) were “binds more readily to p75 neurotrophic receptor”, “found to bind the p75^NTR” and “binds p75 receptor expressed in COS cells”, respectively. Moreover, the “neural excitotoxicity induced by glutamate” value in assay [2] is reported as “reduces neural excitotoxicity induced by glutamate”. Besides, the “effect on cell survival” value in assay [3] is on record as “no effect”.
